Test results from paper PMC11550483 (2024).
Where a SMILES comes first, the peptide text is derived from it.

These compounds were tested against SARS2 M^pro (Severe acute respiratory syndrome coronavirus 2, UniProt P0DTD1, P3395H).
Type: biochemical, SARS-CoV-2

Structure (SMILES) | % inhibition (20 µM) biochemical
COc1ccc(C2(C)CC(C)(C)N(C(C)=O)c3ccccc32)cc1 (stereo not shown) [MWAC-0001751, COc1ccc(cc1)C2(C)CC(C)(C)N(C(=O)C)c3ccccc23] | 4.45%
CCc1cc2c3c(c1)C1(C(=O)N3C(C)(C)C=C2C)C(C#N)=C(N)Oc2[nH]c(=O)[nH]c(=O)c21 (stereo not shown) [MWAC-0001786, CCc1cc2C(=CC(C)(C)N3C(=O)C4(C(=C(N)OC5=C4C(=O)NC(=O)N5)C#N)c(c1)c23)C] | 4%
C=CCN1C(=O)C(O)(CC(=O)c2ccc(Cl)s2)c2cc(Br)ccc21 (stereo not shown) [MWAC-0001788, OC1(CC(=O)c2ccc(Cl)s2)C(=O)N(CC=C)c3ccc(Br)cc13] | 7.53%
Cc1ccc(Cc2cnc(NC(=O)c3cccs3)s2)cc1 [MWAC-0001882, Cc1ccc(Cc2cnc(NC(=O)c3cccs3)s2)cc1] | 0%
CCc1ccc(C2CC(c3ccc(OC)c(OC)c3)=NN2C(C)=O)cc1 (stereo not shown) [MWAC-0001733, CCc1ccc(cc1)C2CC(=NN2C(=O)C)c3ccc(OC)c(OC)c3] | 7%
CCCN1C(=O)C2(c3cc(C)ccc31)N1CC3(C)CN2CC(C)(C1)C3=O (stereo not shown) [MWAC-0001760, CCCN1C(=O)C2(N3CC4(C)CN2CC(C)(C3)C4=O)c5cc(C)ccc15] | 7%
COc1ccc(CC(=O)N2CCC3(CC2)NC(=O)c2cc(Br)ccc2N3)cc1 [MWAC-0001841, COc1ccc(CC(=O)N2CCC3(CC2)NC(=O)c4cc(Br)ccc4N3)cc1] | 0%
Cc1cc(S(=O)(=O)NC(C)C)ccc1OCC(=O)Nc1cccc([N+](=O)[O-])c1 [MWAC-0001775, CC(C)NS(=O)(=O)c1ccc(OCC(=O)Nc2cccc(c2)[N+](=O)[O-])c(C)c1] | 3.17%
CC(=O)N(/N=C1\Sc2ccccc2C1=O)c1ccccc1C [MWAC-0001741, CC(=O)N(\N=C\1/Sc2ccccc2C1=O)c3ccccc3C] | 36%
O=C(Nc1ccccc1O)c1ccc(Cl)c([N+](=O)[O-])c1 [MWAC-0001814, Oc1ccccc1NC(=O)c2ccc(Cl)c(c2)[N+](=O)[O-]] | 2.59%
O=C1NC(=S)NC(=O)C1=Cc1cccc(OS(=O)(=O)c2ccc3ccccc3c2)c1 [MWAC-0001766, O=C1NC(=S)NC(=O)C1=Cc2cccc(OS(=O)(=O)c3ccc4ccccc4c3)c2] | 15%
CN1C(=O)C(O)(CC(=O)c2ccco2)c2cc(Cl)ccc21 (stereo not shown) [MWAC-0001773, CN1C(=O)C(O)(CC(=O)c2occc2)c3cc(Cl)ccc13] | 0.63%
O=C(CCCN1C(=O)/C(=C\c2ccco2)SC1=S)Nc1cc(Cl)ccc1O [MWAC-0000351, Oc1ccc(Cl)cc1NC(=O)CCCN2C(=S)S\C(=C\c3occc3)\C2=O] | 2.86%
CCOc1ccc2nc(NC(=O)C3CC3)sc2c1 [MWAC-0001795, CCOc1ccc2nc(NC(=O)C3CC3)sc2c1] | 8%
COc1ccc(-c2nnc(SCc3ccc4c(c3)OCO4)n2-c2ccccc2)cc1 [MWAC-0001881, COc1ccc(cc1)c2nnc(SCc3ccc4OCOc4c3)n2c5ccccc5] | 0%
Cc1ccc(Cl)cc1-n1c(SCc2ccccc2Cl)nc2[nH]ncc2c1=O [MWAC-0001740, Cc1ccc(Cl)cc1N2C(=Nc3[nH]ncc3C2=O)SCc4ccccc4Cl] | 9%
C=CCN1C(=O)C(O)(CC(=O)c2ccc(C)cc2)c2cc(Br)ccc21 (stereo not shown) [MWAC-0001738, Cc1ccc(cc1)C(=O)CC2(O)C(=O)N(CC=C)c3ccc(Br)cc23] | 4.69%
Nc1ncnc(N)c1N=Nc1ccccc1 [MWAC-0001835, Nc1ncnc(N)c1N=Nc2ccccc2] | 6.65%
COc1ccccc1Nc1nc(-c2ccccn2)cs1 [MWAC-0001885, COc1ccccc1Nc2nc(cs2)c3ccccn3] | 0%
Cc1cc(=O)oc2c(C)c(OCc3ccccc3)ccc12 [MWAC-0001732, CC1=CC(=O)Oc2c(C)c(OCc3ccccc3)ccc12] | 7%
O=C1NC(=O)C(=Cc2cc(Br)ccc2OCc2cccc(F)c2)C(=O)N1 [MWAC-0001793, Fc1cccc(COc2ccc(Br)cc2C=C3C(=O)NC(=O)NC3=O)c1] | 4%
CCOc1ccccc1C1Nc2ccccc2NC2=C1C(=O)CC(c1ccc3c(c1)OCO3)C2 (stereo not shown) [MWAC-0001720, CCOc1ccccc1C2Nc3ccccc3NC4=C2C(=O)CC(C4)c5ccc6OCOc6c5] | 0%
Cc1ccc(/C=C/C(=O)Nc2ccccc2Br)o1 [MWAC-0001759, Cc1oc(\C=C\C(=O)Nc2ccccc2Br)cc1] | 15%
CCc1ccc(C(=O)Cn2c(C)nc([N+](=O)[O-])c2Br)cc1 [MWAC-0001880, CCc1ccc(cc1)C(=O)Cn2c(C)nc(c2Br)[N+](=O)[O-]] | 0%
CCC(=O)OCC(=O)NCc1ccc2c(c1)OCO2 [MWAC-0001887, CCC(=O)OCC(=O)NCc1ccc2OCOc2c1] | 0%
CCOc1ccccc1OCC(=O)N/N=C/c1cc(C)ccc1O [MWAC-0001844, CCOc1ccccc1OCC(=O)N\N=C\c2cc(C)ccc2O] | 21%

Structure (SMILES) | % inhibition (20 µM) biochemical
Cc1cc(C(=O)COn2nnc3ccccc32)c(C)n1-c1ccc2c(c1)OCO2 [MWAC-0001845, Cc1cc(C(=O)COn2nnc3ccccc23)c(C)n1c4ccc5OCOc5c4] | 20%
CCOc1ccc(/C=C2\SC(Nc3ccccc3O)=NC2=O)cc1 [MWAC-0001811, CCOc1ccc(\C=C\2/SC(=NC2=O)Nc3ccccc3O)cc1] | 5.42%
Cc1ccc(Cn2cc(SCC(=O)NCc3ccco3)c3ccccc32)cc1 [MWAC-0001818, Cc1ccc(Cn2cc(SCC(=O)NCc3occc3)c4ccccc24)cc1] | 3.38%
CCCCS(=O)(=O)N(O)c1ccc(Cl)cc1 [MWAC-0001856, CCCCS(=O)(=O)N(O)c1ccc(Cl)cc1] | 4%
CC1=C(C(=O)OC(C)C)C(c2ccsc2)C2=C(CC(c3cccs3)CC2=O)N1 (stereo not shown) [MWAC-0001728, CC(C)OC(=O)C1=C(C)NC2=C(C1c3ccsc3)C(=O)CC(C2)c4cccs4] | 0%
CSCCC(C=O)NC(=O)C(CC(C)C)NC(=O)C(CC(C)C)NC(C)=O (stereo not drawn) [MWAC-0001889, CSCCC(NC(=O)C(CC(C)C)NC(=O)C(CC(C)C)NC(=O)C)C=O] (Ac-Leu-Leu-Met-aldehyde; configuration not given here) | 99%
O=Cc1cc(Cl)ccc1OCC(=O)Nc1ccc(F)cc1 [MWAC-0001783, Fc1ccc(NC(=O)COc2ccc(Cl)cc2C=O)cc1] | 4%
N#Cc1ccccc1CN1C(=O)C(=O)c2ccccc21 [MWAC-0001764, O=C1N(Cc2ccccc2C#N)c3ccccc3C1=O] | 7%
CCOC(=O)c1sc(NC(=O)c2sccc2C)cc1C [MWAC-0001852, CCOC(=O)c1sc(NC(=O)c2sccc2C)cc1C] | 10%
Cc1ccc(C(NC(=O)CCl)c2cccs2)cc1 (stereo not shown) [MWAC-0001859, Cc1ccc(cc1)C(NC(=O)CCl)c2cccs2] | 60%
CCOc1ccccc1C1Nc2ccccc2NC2=C1C(=O)CC(c1ccccc1)C2 (stereo not shown) [MWAC-0001718, CCOc1ccccc1C2Nc3ccccc3NC4=C2C(=O)CC(C4)c5ccccc5] | 0%
Cc1cc(CNC(=O)CCl)cc(C)c1O [MWAC-0001858, Cc1cc(CNC(=O)CCl)cc(C)c1O] | 45%
O=C(NNC(=O)C(c1ccccc1)c1ccccc1)Nc1cccc(Cl)c1 [MWAC-0001779, Clc1cccc(NC(=O)NNC(=O)C(c2ccccc2)c3ccccc3)c1] | 3%
CCOC(=O)CS(=O)(=O)c1ccc(C(=O)N2CCN(C(=O)c3ccco3)CC2)cc1[N+](=O)[O-] [MWAC-0001736, CCOC(=O)CS(=O)(=O)c1ccc(cc1[N+](=O)[O-])C(=O)N2CCN(CC2)C(=O)c3occc3] | 14%
CCCCN1C(=O)C(O)(CC(=O)c2cccc(OC)c2)c2cc(Br)ccc21 (stereo not shown) [MWAC-0001744, CCCCN1C(=O)C(O)(CC(=O)c2cccc(OC)c2)c3cc(Br)ccc13] | 10%
CC1=CC(C)(C)N2C(=O)C(=O)c3cc(OC(=O)c4cccc(F)c4)cc1c32 [MWAC-0001768, CC1=CC(C)(C)N2C(=O)C(=O)c3cc(OC(=O)c4cccc(F)c4)cc1c23] | 2.41%
O=C(CCC(=O)Nc1ccc2c(c1)OCCO2)Nc1ccc(OCc2ccccc2)cc1 [MWAC-0001840, O=C(CCC(=O)Nc1ccc2OCCOc2c1)Nc3ccc(OCc4ccccc4)cc3] | 3%
COc1ccc(C=O)cc1OS(=O)(=O)c1ccc(C)cc1 [MWAC-0001771, COc1ccc(C=O)cc1OS(=O)(=O)c2ccc(C)cc2] | 3.71%
Nc1ccc(C(=O)Nc2ccccc2N)cc1 [MWAC-0001836, Nc1ccc(cc1)C(=O)Nc2ccccc2N] | 5%
CC(C)c1cc(NC(=O)CCl)cc(C(C)C)c1O [MWAC-0001888, CC(C)c1cc(NC(=O)CCl)cc(C(C)C)c1O] | 80%
CCOC(=O)/C=C(\C)N1N=C(c2ccccc2)CC1c1ccc(N(C)C)cc1 (stereo not shown) [MWAC-0001831, CCOC(=O)\C=C(/C)\N1N=C(CC1c2ccc(cc2)N(C)C)c3ccccc3] | 5.67%
Cc1ccc(NC(=S)Nc2ccccc2)nc1 [MWAC-0001820, Cc1ccc(NC(=S)Nc2ccccc2)nc1] | 2.27%
O=C1CSC(=S)N1Cc1cccnc1 [MWAC-0001797, O=C1CSC(=S)N1Cc2cccnc2] | 7%
CCOc1ccccc1N1CCN(C(=O)c2ccc(Cl)c([N+](=O)[O-])c2)CC1 [MWAC-0001782, CCOc1ccccc1N2CCN(CC2)C(=O)c3ccc(Cl)c(c3)[N+](=O)[O-]] | 0.51%
CCOc1ccc2nc(SC3CC(=O)N(c4ccccc4C(F)(F)F)C3=O)sc2c1 (stereo not shown) [MWAC-0001714, CCOc1ccc2nc(SC3CC(=O)N(C3=O)c4ccccc4C(F)(F)F)sc2c1] | 6%
CCOc1ccccc1N1C(=O)CC(Sc2nnc(-c3ccccc3)[nH]2)C1=O (stereo not shown) [MWAC-0001798, CCOc1ccccc1N2C(=O)CC(Sc3nnc([nH]3)c4ccccc4)C2=O] | 2.63%
